From patent US20250054573A1, “METHOD OF CHARACTERISING A DNA SAMPLE” (Cambridge Enterprise Limited, priority 2021, published 2025)

Test system: human cancer cell lines
Assay: Kendall's Tau correlation of CIN signature activities with drug response (AUC, PRISM drug repurposing screen) across cancer cell lines
Assay type: cell-based
Details: for tau (Kendall's Tau), CIN signature activity vs drug response: drug AUC, PRISM screen
Text: Calculating signature activities for cell lines. […] Combined cell line log R and BAF data was split into sample-specific log R and BAF files. […] In this pipeline, while the rescued SNPs allow for the identification of additional segments from their Log R, by construction their average BAF is never equal to 0 or 1 even in the presence of LOH. This biases purity estimates towards lower values and renders the copy-number fitting inaccurate.
Where nT is the total number of copies in the tumour, ρ is the purity and ψ is the average tissue ploidy. Akin to ASCAT, we picked the purity and ploidy combination that minimized the distance between nr and integer values. […] As fitting of absolute copy number to non-matched cell line data is inherently more challenging than other instances, all cell lines where ASCAT identified a plausible solution were visually inspected to determine fit suitability and excluded cell lines where absolute copy number profiles were incorrect or poorly fitted. […] For identifying the signature activities, we used the linear combination decomposition function from YAPSA (R package, v1.12.0) and the 17 signatures of CIN.
CRISPR, RNAi and drug response data integration.
Correlation of signatures with target gene KO, KD and drug inhibition. Kendall's Tau correlation was performed between CIN signature activities and gene essentiality scores from the genetic perturbation screens. Correlations were filtered for tau<−0.07 and q-value<0.05 after multiple testing corrections using the Benjamini-Hochberg method. […] These targets were then used to test correlation of the signature activity with matched drug inhibition of the target measured via AUC.

Structure (SMILES): C/C1=C/C[C@@H](/C(C)=C/c2csc(C)n2)OC(=O)C[C@H](O)C(C)(C)C(=O)[C@H](C)[C@@H](O)[C@@H](C)CCC1 [epothilone-d]
- tau (Kendall's Tau), CIN signature activity vs drug response (CIN sig. CX9, Target TUBB4B): −0.07597

Structure (SMILES): OC(Cc1ccncc1)C(Cl)(Cl)Cl (stereo not shown) [PETCM]
- tau (Kendall's Tau), CIN signature activity vs drug response (CIN sig. CX9, Target CASP3): −0.1078

Structure (SMILES): O=C(c1cc(Cc2n[nH]c(=O)c3ccccc23)ccc1F)N1CCN(C(=O)C2CC2)CC1 [olaparib]
- association of CX5 activity with drug response, in words (CIN sig. CX5, Target PARP1, 297 cancer cell lines): predicted response to olaparib

Structure (SMILES): Cc1ccc(NC(=O)c2cccc(C(C)(C)C#N)c2)cc1Nc1ccc2ncn(C)c(=O)c2c1 [AZ-628]
- tau (Kendall's Tau), CIN signature activity vs drug response (CIN sig. CX1, Target BRAF): −0.09859
- tau (Kendall's Tau), CIN signature activity vs drug response (CIN sig. CX14, Target BRAF): −0.1048
- tau (Kendall's Tau), CIN signature activity vs drug response (CIN sig. CX14, Target RAF1): −0.1048
- tau (Kendall's Tau), CIN signature activity vs drug response (CIN sig. CX15, Target BRAF): −0.1189

Structure (SMILES): COc1cc2c(cc1O)CC[C@@H]1[C@@H]2CC[C@]2(C)[C@@H](O)CC[C@@H]12 [2-methoxyestradiol]
- tau (Kendall's Tau), CIN signature activity vs drug response (CIN sig. CX5, Target HIF1A): −0.1543

Structure (SMILES): Cn1cc(CNCC2CCN(c3ncc(C(=O)NO)cn3)CC2)c2ccccc21 [JNJ-26481585]
- tau (Kendall's Tau), CIN signature activity vs drug response (CIN sig. CX17, Target HDAC2): −0.1371
- tau (Kendall's Tau), CIN signature activity vs drug response (CIN sig. CX17, Target HDAC4): −0.1371

Structure (SMILES): O=C1NC(=O)c2c1c1c3ccccc3[nH]c1c1[nH]c3ccccc3c21 [arcyriaflavin-a]
- association of CX4 activity with drug response, in words (CIN sig. CX4, Target CCND1, 297 cancer cell lines): correlated with response to inhibition of CCND1
- tau (Kendall's Tau), CIN signature activity vs drug response (CIN sig. CX4, Target CCND1): −0.1159
- tau (Kendall's Tau), CIN signature activity vs drug response (CIN sig. CX13, Target CDK4): −0.07546
